Experimental data taken from patent US10780092B2, “Fused pyrazine derivatives useful as soluble guanylate cyclase stimulators” (Merck Sharp & Dohme Corp., priority 2016, dated 2020).

Key:
[1] = target: human recombinant sGC enzyme (Homo sapiens (Human), UniProt Q02108+Q02153); test: SEC competition binding assay with [3H] Compound B radioligand; settings: displacement of 1.6 nM [3H] Compound B, 24 h at 37° C.
Method: The binding potencies of sGC compounds to the human recombinant sGC enzyme were determined in a Size Exclusion Chromatography (SEC) competition binding assay using [^3H] Compound B as the radioligand. [^3H] Compound B was prepared using a standardardized tritium exchange procedure. The parent (non-labeled) molecule was first iodinated then a Pd-catalyzed iodine to tritium exchange provided the labeled compound.
Method: The binding buffer was composed of 50 mM triethanolamine pH 7.4, 3 mM MgCl2, 0.025% BSA, 2 mM dithiothreitol (DTT), 300 μM DETA/NO and 400 μM GTP. Assays were conducted in 96-well plates in a total volume of 200 μL. Recombinant human sGC protein (40 ng) was incubated with 1.6 nM [^3H] Compound B for 24 h at 37° C. in the presence and absence of various concentrations of sGC testing compounds delivered as DMSO solutions to give a total of 1% organic solvent content. Non-specific binding was defined by competition with 1 μM of Compound B. After the incubation period, the binding mixtures were loaded onto the gel-filtration plate (ThermoFischer Cat. No. 89808) pre-equilibrated with binding buffer and spun at 1000×g for 3 min at 4° C. on a Bench top centrifuge. The collected eluates in White Frame Clear Well Isoplates (Perkin Elmer Cat #6005040) received 100 μl of UltimaGold scintillation cocktail. The sealed plates were shaken vigorously and span, and counted after 6 hs with a Wallac Microbeta TriLux 1450 LSC & Luminescence Counter (Perkin Elmer). Data from competition experiments were analyzed to determine Ki values using one site—fit Ki equation.

sGC α1/β1 heterodimer = sGC α1/β1 heterodimer (Homo sapiens (Human), UniProt Q02108+Q02153); test: Cell-based sGC functional assay (CASA assay), cGMP by HTRF; settings: CHO-K1/sGC cells; for Emax: CHO-K1, cGMP production as percentage of maximum of compound A (set to 100%), read-out: % Activation; for EC50: inflection point of cGMP production, 4P fit, read-out: IP
Excerpt: Cell-Based sGC Functional Assay (Cyclic GMP Assay for sGC Activator: CASA Assay)
Soluble guanylate cyclase (sGC) is a heme-containing enzyme that converts GTP to secondary messenger cGMP. Increases in cGMP levels affect several physiological processes including vasorelaxation through multiple downstream pathways. […] Heme-dependent activators (HDAs) preferentially target sGC containing a ferrous heme group. To determine the effect of sGC activators on enzyme activity, the CASA assay was developed to monitor the generation of cGMP in a cell line that stably expresses the heterodimeric sGC protein.
A CHO-K1 cell line stably expressing the sGC α1/β1 heterodimer was generated using a standard transfection protocol. The cDNA's encoding human sGC α1 and β1 were cloned in pIRES hyg and pIRES neo respectively using standard molecular biology techniques. The plasmids pIRES hyg and pIRES neo plasmids were obtained from Clontech. CHO-K1 cells were transfected with plasmids pIREShyg-hsGCα1 and pIRESneo-hsGCβ1 simultaneously using FUGENE reagent. Clones that stably express both subunits were selected with hygromycin and neomycin for ˜2 weeks. The clone chosen for the assay was designated CHO-K1/sGC. CHO-K1/sGC cells were maintained in F-K12 medium containing 10% heat-inactivated Fetal Bovine Serum (FBS), 100 μg/mL penicillin/streptomycin, 0.5 mg/mL hygromycin and 0.25 mg/mL G418. The cells were then cryopreserved in liquid nitrogen. On the day of the assay, the cells were thawed and resuspended in EBSS Assay Buffer (Sigma, E3024) supplemented with 5 mM MgCl2, 10 mM HEPES (4-(2-hydroxyethyl)piperazine-1-ethanesulfonic acid) and 0.05% BSA (bovine serum albumin) and cell density was then adjusted to 2.25×10^5/mL with EAB. IBMX (3-isobutyl-1-methylxanthin, 0.5 mM) was added to inhibit degradation of cGMP. Compounds were diluted from DMSO stock solutions and added to the assay at a final DMSO concentration of 2.5%. Cells were pre-incubated in the presence and absence of 1 μM of Diethylenetriamine/nitric oxide adduct (DETA-NO; Sigma, 17018) for 30 min at 25° C. Compounds were subsequently added and incubated for 1 hr at 37° C. At the end of the incubation period, the reaction was terminated and the cells were lysed with the detection reagents from Cisbio Kits. The level of intracellular cGMP was determined using an HTRF-based assay kit (CisBio, 62GM2PEC), which detects the displacement of a fluorescence labeled cGMP from its specific antibody. The cGMP produced by test compounds was directly compared to the maximum cGMP production (this value was set to equal 100% activation) of the published sGC compound A (Example 1 in WO 2010/065275, published Jun. 10, 2010).
The test compounds' activities were then expressed as a percentage of compound A, the standard in every experiment. This percent activation was calculated either in the presence or absence of DETA-NO which was then plotted. Inflection points (IP) and maximum fold induction was derived using Abase analysis software for 4P fit.

SMILES	Ki [1] [nM]	Emax (sGC α1/β1 heterodimer) [%]	EC50 (sGC α1/β1 heterodimer) [nM]	% Activation (sGC α1/β1 heterodimer; cGMP production as percentage of maximum of compound A (set to 100%)) [%]
CCCCc1nc(-c2nc(N)c3c(n2)NC(=O)C3(C)c2cc(O)ccn2)cn2ncnc12 (stereo not drawn) [Example 118-B, 4-Amino-2-(8-butyl-[1,2,4]triazolo[1,5-a]-pyrazin-6-yl)-5-(4-hydroxypyridin-2-yl)-5-methyl-5,7-dihydro-6H-pyrrolo[2,3-d]-pyrimidin-6-one]	7.95	103	457	
CC1(c2cc(O)c(C#N)c(Cl)c2)C(=O)Nc2nc(-c3cn4ccnc4c(Cc4ccccc4F)n3)nc(N)c21 (stereo not drawn) [Example 143-A, 4-(4-amino-2-{8-(2-fluorobenzyl)imidazo-[1,2-a]pyrazin-6-yl}-5-methyl-6-oxo-6,7-dihydro-5H-pyrrolo-[2,3-d]pyrimidin-5-yl)-2-chloro-6-hydroxy-benzonitrile]	1.09	79	2970	
CC1CCC(Cc2nc(-c3nc(N)c4c(n3)NC(=O)C4(C)c3ccc(Cl)c(O)c3)cn3ccnc23)CC1 (stereo not drawn) [Example 108-AB, 4-Amino-5-(4-chloro-3-hydroxyphenyl)-5-methyl-2-{8-[(4-methylcyclohexyl)methyl]imidazo[1,2-a]pyrazin-6-yl}-5,7-dihydro-6H-pyrrolo[2,3-d]pyrimidin-6-one]	0.524		210	127
CC1(c2cccc(O)c2)C(=O)Nc2nc(-c3cn4ccnc4c(Cc4cccc(Cl)c4)n3)nc(N)c21 (stereo not drawn) [Example 124-B, 4-Amino-2-{8-[(3-chlorophenyl)methyl]-imidazo[1,2-a]pyrazin-6-yl}-5-(3-hydroxyphenyl)-5-methyl-5,7-dihydro-6H-pyrrolo[2,3-d]pyrimidin-6-one]	2.63	113	224	
CC(C)CCc1nc(-c2nc(N)c3c(n2)NC(=O)C3(C)c2ccc(O)c(F)c2)cn2ccnc12 (stereo not drawn) [Example 54-B, 4-Amino-5-(3-fluoro-4-hydroxyphenyl)-2-(8-isopentylimidazo[1,2-a]pyrazin-6-yl)-5-methyl-5,7-dihydro-6H-pyrrolo[2,3-d]pyrimidin-6-one]	1.08	72	42	
CC(C)CCc1nc(-c2nc(N)c3c(n2)NC(=O)C3(C)c2ccc(O)cc2)cn2ccnc12 (stereo not drawn) [Example 58-B, 4-Amino-5-(4-hydroxyphenyl)-2-(8-isopentylimidazo[1,2-a]pyrazin-6-yl)-5-methyl-5,7-dihydro-6H-pyrrolo[2,3-d]pyrimidin-6-one]	1.54	121	164	
CC1(c2ccc(Cl)c(O)c2)C(=O)Nc2nc(-c3cn4ncnc4c(CCC(F)(F)C(F)(F)F)n3)nc(NCC(O)C(F)(F)F)c21 (single isomer, unassigned) [Example 133-AA, 5-(4-Chloro-3-hydroxy-phenyl)-5-methyl-2-(8-(3,3,4,4,4-pentafluoro-butyl)-[1,2,4]triazolo-[1,5-a]pyrazin-6-yl)-4-[(3,3,3-trifluoro-2-hydroxypropyl)amino]-5,7-dihydro-6H-pyrrolo-[2,3-d]pyrimidin-6-one]	2.34	38	1290	
CCCCc1nc(-c2nc(N)c3c(n2)NC(=O)C3(C)c2ccc(O)c(Cl)c2)cn2ccnc12 (stereo not drawn) [Example 75-B, 4-Amino-2-(8-butylimidazo[1,2-a]pyrazin-6-yl)-5-(3-chloro-4-hydroxyphenyl)-5-methyl-5,7-dihydro-6H-pyrrolo[2,3-d]pyrimidin-6-one]	6.55	153	770	

Now those with a lower Ki [1], led by results:

Ki [1] [nM]	Emax (sGC α1/β1 heterodimer) [%]	EC50 (sGC α1/β1 heterodimer) [nM]	% Activation (sGC α1/β1 heterodimer; cGMP production as percentage of maximum of compound A (set to 100%)) [%]	SMILES
0.162	53	282		CC1(c2cc(O)c(C#N)c(F)c2)C(=O)Nc2nc(-c3cn4ccnc4c(Cc4cc(F)ccc4F)n3)nc(N)c21 (stereo not drawn) [Example 101-B, 4-(4-Amino-2-{8-[(2,5-difluorophenyl)methyl]imidazo[1,2-a]pyrazin-6-yl}-5-methyl-6-oxo-6,7-dihydro-5H-pyrrolo[2,3-d]pyrimidin-5-yl)-2-fluoro-6-hydroxybenzonitrile]
0.126	85	1040		CC1(c2cc(O)c(F)c(F)c2)C(=O)Nc2nc(-c3cn4ccnc4c(Cc4ccccc4F)n3)nc(N)c21 (stereo not drawn) [Example 9-B, 4-Amino-5-(3,4-difluoro-5-hydroxyphenyl)-2-{8-[(2-fluorophenyl)methyl]imidazo[1,2-a]pyrazin-6-yl}-5-methyl-5,7-dihydro-6H-pyrrolo[2,3-d]pyrimidin-6-one]
0.479	88	368		CC1(c2cc(O)c(Cl)cn2)C(=O)Nc2nc(-c3cn4ccnc4c(Cc4cc(F)cc(F)c4)n3)nc(N)c21 (stereo not drawn) [Example 40-B, 4-Amino-5-(5-chloro-4-hydroxypyridin-2-yl)-2-{8-[(3,5-difluorophenyl)methyl]imidazo[1,2-a]pyrazin-6-yl}-5-methyl-5,7-dihydro-6H-pyrrolo[2,3-d]pyrimidin-6-one]
0.496	170	146		CCCCc1nc(-c2nc(N)c3c(n2)NC(=O)C3(C)c2cc(O)c(Cl)c(F)c2)cn2ncnc12 (stereo not drawn) [Example 42-B, 4-Amino-2-(8-butyl-[1,2,4]triazolo[1,5-a]pyrazin-6-yl)-5-(4-chloro-3-fluoro-5-hydroxyphenyl)-5-methyl-5,7-dihydro-6H-pyrrolo[2,3-d]pyrimidin-6-one]
0.158	107	771		CC1(c2cc(O)c(C#N)c(F)c2)C(=O)Nc2nc(-c3cn4ncnc4c(CC4CCCCC4)n3)nc(N)c21 (stereo not drawn) [Example 15-B, 4-(4-Amino-2-(8-(cyclohexylmethyl)-[1,2,4]triazolo[1,5-a]pyrazin-6-yl)-5-methyl-6-oxo-6,7-dihydro-5H-pyrrolo[2,3-d]pyrimidin-5-yl)-2-fluoro-6-hydroxybenzonitrile]
0.372	107	768		CC1(c2cccc(O)c2)C(=O)Nc2nc(-c3cn4ccnc4c(Cc4ccccc4)n3)nc(N)c21 (stereo not drawn) [Example 123-B, 4-Amino-2-(8-benzyl-imidaxol[1,2-a]pyrazin-6-yl)-5-(3-hydroxyphenyl)-5-methyl-5,7-dihydro-6H-pyrrolo[2,3-d]pyrimidin-6-one]
0.276	105	426		CC1(c2ccc(Cl)c(O)c2)C(=O)Nc2nc(-c3cn4ncnc4c(Cc4ccc(F)cc4)n3)nc(N)c21 (stereo not drawn) [Example 26-A, 4-Amino-5-(4-chloro-3-hydroxyphenyl)-2-{8-[(4-fluorophenyl)methyl]-[1,2,4]triazolo[1,5-a]pyrazin-6-yl}-5-methyl-5,7-dihydro-6H-pyrrolo[2,3-d]pyrimidin-6-one]
